Test results: ChEMBL document CHEMBL1201862, “PubChem BioAssay data set” (2004)
Active and inactive are the calls of the source.

How the values were obtained:
[1] = target: Troponin, cardiac muscle (Homo sapiens, UniProt P19429+P45379+P63316); assay: Fluorescence-based biochemical high throughput dose response assay for activators of the calcium sensitivity of cardiac Regulated Thin Filaments (RTF). [Related pubchem assays (depositor defined):AID493008, AID493018, AID504382, AID504383]; format: protein-complex assay
[2] = target: Probable nicotinate-nucleotide adenylyltransferase (Staphylococcus aureus (strain N315), UniProt P65502); format: functional, Staphylococcus aureus subsp. aureus N315; settings: read-out: IC50_Mean;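 further: confirmatory dose-response retesting of NadD inhibitor hits first found in an ultra-high-throughput screen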
[3] = target: T1, Tyrosine-protein phosphatase non-receptor type 22 (Homo sapiens, UniProt Q9Y2R2); assay: inhibitors of LYP phosphatase, biochemical, fluorescence intensity, uHTS (AID 1779)
T1 sequence (Q9Y2R2 whole entry): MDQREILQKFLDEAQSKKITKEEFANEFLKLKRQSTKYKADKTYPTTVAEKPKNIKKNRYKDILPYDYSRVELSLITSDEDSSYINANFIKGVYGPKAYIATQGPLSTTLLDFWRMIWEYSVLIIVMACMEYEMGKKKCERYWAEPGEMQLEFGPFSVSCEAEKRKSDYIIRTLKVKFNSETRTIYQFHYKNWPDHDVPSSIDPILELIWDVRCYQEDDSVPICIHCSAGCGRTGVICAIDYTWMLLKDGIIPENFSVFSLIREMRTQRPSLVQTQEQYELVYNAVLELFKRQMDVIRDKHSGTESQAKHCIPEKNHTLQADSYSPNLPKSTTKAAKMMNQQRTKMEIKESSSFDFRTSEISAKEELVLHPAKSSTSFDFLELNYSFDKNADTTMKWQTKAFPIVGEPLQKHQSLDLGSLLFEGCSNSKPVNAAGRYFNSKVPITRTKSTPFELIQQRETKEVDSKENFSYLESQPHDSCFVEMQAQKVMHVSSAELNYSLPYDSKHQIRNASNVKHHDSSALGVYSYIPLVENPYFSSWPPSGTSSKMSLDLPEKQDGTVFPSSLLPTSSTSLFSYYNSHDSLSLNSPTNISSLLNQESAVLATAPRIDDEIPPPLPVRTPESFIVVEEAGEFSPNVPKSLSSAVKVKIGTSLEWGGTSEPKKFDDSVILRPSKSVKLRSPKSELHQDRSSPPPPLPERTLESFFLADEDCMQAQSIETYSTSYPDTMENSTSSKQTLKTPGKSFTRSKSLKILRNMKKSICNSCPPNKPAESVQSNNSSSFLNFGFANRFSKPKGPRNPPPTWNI

[4] = target: T2, Long-chain-fatty-acid--AMP ligase FadD28 (Mycobacterium tuberculosis, UniProt P9WQ59); assay: Fluorescence polarization aasay to screen for inhibitors that compete for the binding of FadD28 to a bisubstrate Measured in Biochemical System Using Plate Reader - 2147-01_Inhibitor_Dose_CherryPick_Activity.; format: functional, Mycobacterium tuberculosis H37Rv
T2 sequence (P9WQ59 whole entry): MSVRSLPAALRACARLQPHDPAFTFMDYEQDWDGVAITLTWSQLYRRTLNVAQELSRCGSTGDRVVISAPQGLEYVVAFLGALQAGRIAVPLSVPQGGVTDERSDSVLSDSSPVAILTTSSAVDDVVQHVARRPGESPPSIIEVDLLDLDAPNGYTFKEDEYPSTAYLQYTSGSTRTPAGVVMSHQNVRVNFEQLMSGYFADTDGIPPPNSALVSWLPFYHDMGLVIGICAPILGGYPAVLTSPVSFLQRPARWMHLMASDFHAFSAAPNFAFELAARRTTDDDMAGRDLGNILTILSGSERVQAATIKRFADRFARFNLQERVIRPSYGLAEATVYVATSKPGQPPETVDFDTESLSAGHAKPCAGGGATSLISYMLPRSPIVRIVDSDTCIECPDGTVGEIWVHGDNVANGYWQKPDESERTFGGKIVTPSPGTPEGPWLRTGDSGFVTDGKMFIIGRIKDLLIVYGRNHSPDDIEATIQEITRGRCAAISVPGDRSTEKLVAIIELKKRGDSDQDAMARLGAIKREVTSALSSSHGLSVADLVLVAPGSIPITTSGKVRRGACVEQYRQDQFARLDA

[5] = target: Small ubiquitin-related modifier 2 (Homo sapiens, UniProt P61956); assay: inhibitors of SUMO2 protein-protein interaction, dose response, selectivity assay for SUMO1 interaction inhibitor project, biochemical, FRET, human SUMO2, uHTS hits (AID 624384); format: functional; settings: read-out: IC50_Mean
[6] = target: Induced myeloid leukemia cell differentiation protein Mcl-1 (Homo sapiens, UniProt Q07820); format: functional
[7] = target: T3, Dual specificity protein phosphatase 6 (Rattus norvegicus, UniProt Q64346); assay: MKP-3 phosphatase inhibitors, primary screen, biochemical, rat enzyme, in vitro (AID 425)
T3 sequence (Q64346 whole entry): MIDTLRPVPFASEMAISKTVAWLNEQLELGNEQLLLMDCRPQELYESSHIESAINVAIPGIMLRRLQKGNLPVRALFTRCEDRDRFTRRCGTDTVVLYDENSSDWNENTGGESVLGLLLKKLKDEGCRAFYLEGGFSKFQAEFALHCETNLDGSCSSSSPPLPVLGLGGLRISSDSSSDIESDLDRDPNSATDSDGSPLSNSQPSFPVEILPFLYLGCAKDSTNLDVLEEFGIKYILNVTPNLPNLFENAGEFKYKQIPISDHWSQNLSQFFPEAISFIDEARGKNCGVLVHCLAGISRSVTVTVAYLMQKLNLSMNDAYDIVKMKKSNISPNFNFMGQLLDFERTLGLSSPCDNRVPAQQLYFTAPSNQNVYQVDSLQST

[8] = target: T4, Heat shock factor protein 1 (Mus musculus, UniProt P38532); assay: inhibition of MG132-induced HSE-luciferase signal, confirmation, cell-based, NIH3T3, luminescence, dose retest (AID 2382); format: functional;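 further: NIH3T3 fibroblasts with HSF1-driven luciferase reporter stressed by proteasome inhibitor MG132; luminescence from HSF1-driven luciferase expression after 8 hours of MG132 stress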
T4 sequence (P38532 whole entry): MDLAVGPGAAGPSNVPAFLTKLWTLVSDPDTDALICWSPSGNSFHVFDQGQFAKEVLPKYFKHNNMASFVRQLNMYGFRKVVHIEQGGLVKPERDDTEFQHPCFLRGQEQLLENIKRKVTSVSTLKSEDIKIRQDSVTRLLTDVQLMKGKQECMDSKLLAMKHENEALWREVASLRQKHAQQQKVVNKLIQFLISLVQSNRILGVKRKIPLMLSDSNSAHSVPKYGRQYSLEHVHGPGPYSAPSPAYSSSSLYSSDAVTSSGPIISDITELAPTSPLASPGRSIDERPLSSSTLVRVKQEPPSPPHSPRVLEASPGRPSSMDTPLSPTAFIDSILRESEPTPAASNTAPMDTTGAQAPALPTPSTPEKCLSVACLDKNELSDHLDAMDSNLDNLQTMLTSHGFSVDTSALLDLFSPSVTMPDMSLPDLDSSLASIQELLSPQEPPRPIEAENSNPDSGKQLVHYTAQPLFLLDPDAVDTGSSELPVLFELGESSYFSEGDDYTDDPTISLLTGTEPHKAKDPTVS

[9] = target: Matrix metalloproteinase-14 (Homo sapiens, UniProt P50281); assay: Dose Response confirmation of uHTS hits for a small molecule inhibitors of MT1-MMP activation in a fluorescence assay set 1.; format: functional

## CCN(CC)CCN1C(=O)c2cccc3cc(N)cc(c23)C1=O
[1]
  EC50: 21.3 µM (inactive)

## O=C(O)c1cccc(-n2cccc2/C=C2/NC(=O)N(c3ccc(Cl)cc3)C2=O)c1
[2]
  IC50: 27.1 µM (active)
[3]
  IC50: 5.47 µM (active)
[4]
  AC50: 58 µM (active)
[5]
  IC50: 0.752 µM (active)
[6]
  IC50: 2.69 µM (active)
[7]
  IC50: 3.28 µM (active)

## C=C1C(=O)O[C@@H]2C[C@@H](C)[C@@H]3C=CC(=O)[C@@]3(C)[C@@H](OC(=O)CC(=O)O[C@H]3[C@@H]4C(=C)C(=O)O[C@@H]4C[C@@H](C)[C@@H]4C=CC(=O)[C@]43C)[C@H]12
[8]
  EC50: 0.98 µM (active)

## O=S(=O)(O)c1cc(Cl)cc(N=Nc2ccc(O)cc2O)c1O
[9]
  IC50: 1.41 µM (active)
